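Cultured in 96-well plates, cells were exposed to test compound for 48 hours across five concentrations. GI50 = concentration required for 50% inhibition of growth. TGI marks complete inhibition of growth.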
The molecules below were run on CAKI-1 renal (assay: NCI tumour cell line growth inhibition, 48 h).
For CCCCNC1=C(C(=O)OCC)/C(=N/NC(=O)c2ccccc2O)CO1, the TGI was over 100 µM. With N#CC(C(=O)CCCC(=O)Nc1ccc(Cl)cc1Cl)c1ccc(Cl)cc1 (centres undefined) the TGI was over 100 µM. With O=CCCCC(Sc1ccccc1)Sc1ccccc1 the TGI was over 100 µM. With COC(=O)/C(=N\Nc1nnc(C)n1N)C(C#N)c1ccccc1 (centres undefined) the TGI was over 100 µM. With Cc1ccc2nc(NC(=O)C(=O)CC(=O)c3cccc4ccccc34)sc2c1 the TGI was 78 µM. With O=C1CCC(=O)c2sccc2N1 the TGI was over 100 µM. Molecule CCCCCCCCCCCCCCCCCC(=O)NCC(COP(=O)(O)O)OCC (centres undefined) has a TGI of over 100 µM. In the case of Cn1nc(-c2ccccc2)c(C(=O)/C=C/c2ccc(Cl)cc2)c(N2CCCC2)c1=O, the TGI is reported as 22.2 µM. O=C1C=Cc2ncccc2C1=O was tested, and the TGI was 48.9 µM. Work on [CH3][Sn]1([CH3])[O]CC(COc2cc(Cl)c(Cl)cc2Cl)[O]1 (centres undefined) yielded a GI50 of 28.1 µM and a TGI of 89.3 µM. For Cc1cc2nc3c4ccc(Br)cc4n(CCN(C)C)c3nc2cc1C, the GI50 was 1.53 µM and the TGI was 5.42 µM. In the case of CCc1cc(Cc2ccc(C)c(NC(=O)C(=O)C3C(=O)NC(=O)NC3=O)c2CC)cc(C)c1NC(=O)C(=O)C1C(=O)NC(=O)NC1=O, the TGI is reported as over 100 µM. CC(=O)OC(=O)O/C=C\CCl gave a TGI of over 100 µM. CC(=O)c1c2c(cc3c1CC1(C3)Cc3cc4c(c(C(=O)O)c3C1)CCC4)CCC2 (centres undefined) was tested, and the TGI was over 100 µM. C/C(=N/O)c1ccc(Nc2cc(-n3ccnc3)c3ccccc3n2)cc1 was tested, and the GI50 was 26.6 µM and the TGI was over 100 µM. For Cc1ccc(/C=N/NS(=O)(=O)c2ccccc2)c(C)c1, the TGI was over 100 µM. In the case of NNC(=O)C(O)C(O)C(=O)NN (centres undefined), the TGI is reported as over 100 µM. In the case of O=C(/C=C/c1cccc2ccccc12)Nc1ncc(Cc2ccccc2)s1, the GI50 is reported as 0.609 µM and the TGI is reported as 3.71 µM. Molecule C#CCOCn1cnc2ncnc(N)c21 has a TGI of over 100 µM. Molecule Cc1noc(/N=C2\C=C(Nc3onc(C)c3C)C(=O)c3ccccc32)c1C has a TGI of over 100 µM. For CCCN1CCC=C(c2ccc(Nc3nc(Nc4ccccc4C(N)=O)c4cc[nH]c4n3)c(C)c2)C1, the GI50 was 9.49 µM and the TGI was over 25 µM.

These molecules were tested on A498 renal (assay: NCI tumour cell line growth inhibition, 48 h).
For O=S1(=O)c2ccccc2N=C(c2ccccc2Cl)CC1c1ccc(F)cc1 (centres undefined), the TGI was 35.7 µM. With CC(/C=N/N=C(N)N)=N\N=C(N)N the GI50 was over 77.9 µM and the TGI was 1890 µM. CC1=CC(=O)NP(=O)(C23CC4CC(CC(C4)C2)C3)N1 (centres undefined) was tested, and the TGI was over 100 µM. O=c1[nH]cc(C(F)(C(F)(F)F)C(F)(F)F)c(=O)[nH]1 was tested, and the TGI was over 100 µM. Molecule COc1ccc2c(c1)c1c3n2CCNN=C3CCC1 has a TGI of over 100 µM. CC(C)N1C(C)[C@@H](c2ccccc2)O[P@]1(=O)CC1=CCCCC1 (some centres undefined) was tested, and the TGI was over 100 µM. With COc1ccc(NC(=O)C2C(=O)N(c3ccc(OC)cc3)C(=O)/C2=N\NC(N)=O)cc1 (centres undefined) the TGI was 45 µM. Molecule C/C(=N\NS(=O)(=O)c1ccc([N+](=O)[O-])cc1)c1ccc[n+]([O-])n1 has a TGI of 4 µM. With S=c1c2ccccc2c(=S)n2n1CC=CC2 the TGI was over 100 µM. Molecule CC(C)(C)Sc1nnc(SC(C)(C)C)c2c(=O)[nH]nc(SC(C)(C)C)c12 has a TGI of 27.1 µM. With CCCCNC1=C(C(=O)OCC)/C(=N/NC(=O)c2ccccc2O)CO1 the TGI was over 100 µM. With O=CCCCC(Sc1ccccc1)Sc1ccccc1 the TGI was over 100 µM. With COC(=O)/C(=N\Nc1nnc(C)n1N)C(C#N)c1ccccc1 (centres undefined) the TGI was over 100 µM. COc1ccc(C)cc1C1CCC(=O)O1 (centres undefined) gave a TGI of over 100 µM. With Cc1ccc2nc(NC(=O)C(=O)CC(=O)c3cccc4ccccc34)sc2c1 the TGI was over 100 µM. O=C1CCC(=O)c2sccc2N1 was tested, and the TGI was over 100 µM. With CCCCCCCCCCCCCCCCCC(=O)NCC(COP(=O)(O)O)OCC (centres undefined) the TGI was over 100 µM. In the case of O=C1C=Cc2ncccc2C1=O, the TGI is reported as over 91.5 µM. [CH3][Sn]1([CH3])[O]CC(COc2cc(Cl)c(Cl)cc2Cl)[O]1 (centres undefined) showed a GI50 of 70 µM and a TGI of over 100 µM. Work on Cc1cc2nc3c4ccc(Br)cc4n(CCN(C)C)c3nc2cc1C yielded a GI50 of 1.02 µM and a TGI of 2.54 µM. CCc1cc(Cc2ccc(C)c(NC(=O)C(=O)C3C(=O)NC(=O)NC3=O)c2CC)cc(C)c1NC(=O)C(=O)C1C(=O)NC(=O)NC1=O showed a TGI of over 100 µM. Molecule CC(=O)OC(=O)O/C=C\CCl has a TGI of over 100 µM. C/C(=N/O)c1ccc(Nc2cc(-n3ccnc3)c3ccccc3n2)cc1 was tested, and the GI50 was 27.6 µM and the TGI was 94 µM. Cc1ccc(/C=N/NS(=O)(=O)c2ccccc2)c(C)c1 showed a TGI of over 100 µM. NNC(=O)C(O)C(O)C(=O)NN (centres undefined) gave a TGI of over 100 µM. Work on O=C(/C=C/c1cccc2ccccc12)Nc1ncc(Cc2ccccc2)s1 yielded a GI50 of 0.189 µM and a TGI of 0.72 µM. C#CCOCn1cnc2ncnc(N)c21 gave a TGI of over 100 µM. In the case of Cc1noc(/N=C2\C=C(Nc3onc(C)c3C)C(=O)c3ccccc32)c1C, the TGI is reported as over 100 µM. CCCN1CCC=C(c2ccc(Nc3nc(Nc4ccccc4C(N)=O)c4cc[nH]c4n3)c(C)c2)C1 was tested, and the GI50 was 11.1 µM and the TGI was over 25 µM.

The molecules below were run on UACC-257 melanoma (assay: NCI tumour cell line growth inhibition, 48 h).
With O=S1(=O)c2ccccc2N=C(c2ccccc2Cl)CC1c1ccc(F)cc1 (centres undefined) the TGI was 24.7 µM. In the case of CC(/C=N/N=C(N)N)=N\N=C(N)N, the GI50 is reported as over 73.7 µM and the TGI is reported as 521 µM. CC1=CC(=O)NP(=O)(C23CC4CC(CC(C4)C2)C3)N1 (centres undefined) showed a TGI of over 100 µM. For O=c1[nH]cc(C(F)(C(F)(F)F)C(F)(F)F)c(=O)[nH]1, the TGI was over 100 µM. COc1ccc2c(c1)c1c3n2CCNN=C3CCC1 showed a TGI of over 100 µM. Work on CC(C)N1C(C)[C@@H](c2ccccc2)O[P@]1(=O)CC1=CCCCC1 (some centres undefined) yielded a TGI of over 100 µM. COC(=O)C(=O)C(C(=O)C(=O)Nc1cc(Cl)c(Cl)cc1Cl)c1nc2ccc([N+](=O)[O-])cc2[nH]c1=O (centres undefined) showed a TGI of over 100 µM. Molecule COc1ccc(NC(=O)C2C(=O)N(c3ccc(OC)cc3)C(=O)/C2=N\NC(N)=O)cc1 (centres undefined) has a TGI of over 100 µM. For C/C(=N\NS(=O)(=O)c1ccc([N+](=O)[O-])cc1)c1ccc[n+]([O-])n1, the TGI was 14.6 µM. In the case of S=c1c2ccccc2c(=S)n2n1CC=CC2, the TGI is reported as over 100 µM. Molecule CC(C)(C)Sc1nnc(SC(C)(C)C)c2c(=O)[nH]nc(SC(C)(C)C)c12 has a TGI of 26.7 µM. In the case of CCCCNC1=C(C(=O)OCC)/C(=N/NC(=O)c2ccccc2O)CO1, the TGI is reported as 14.2 µM. N#CC(C(=O)CCCC(=O)Nc1ccc(Cl)cc1Cl)c1ccc(Cl)cc1 (centres undefined) showed a TGI of over 100 µM. With O=CCCCC(Sc1ccccc1)Sc1ccccc1 the TGI was 48.5 µM. In the case of COC(=O)/C(=N\Nc1nnc(C)n1N)C(C#N)c1ccccc1 (centres undefined), the TGI is reported as over 100 µM. Molecule COc1ccc(C)cc1C1CCC(=O)O1 (centres undefined) has a TGI of over 100 µM. Cc1ccc2nc(NC(=O)C(=O)CC(=O)c3cccc4ccccc34)sc2c1 showed a TGI of 82.2 µM. O=C1CCC(=O)c2sccc2N1 was tested, and the TGI was over 100 µM. Molecule CCCCCCCCCCCCCCCCCC(=O)NCC(COP(=O)(O)O)OCC (centres undefined) has a TGI of over 100 µM. O=C1C=Cc2ncccc2C1=O gave a TGI of 35.1 µM. With C/C(CC(=O)Nc1cccc([N+](=O)[O-])c1)=N\NC(=O)CC#N the TGI was over 100 µM. With [CH3][Sn]1([CH3])[O]CC(COc2cc(Cl)c(Cl)cc2Cl)[O]1 (centres undefined) the GI50 was 99 µM and the TGI was over 100 µM. For Cc1cc2nc3c4ccc(Br)cc4n(CCN(C)C)c3nc2cc1C, the GI50 was 1.88 µM and the TGI was 3.91 µM. CCc1cc(Cc2ccc(C)c(NC(=O)C(=O)C3C(=O)NC(=O)NC3=O)c2CC)cc(C)c1NC(=O)C(=O)C1C(=O)NC(=O)NC1=O gave a TGI of over 100 µM. For CC(=O)OC(=O)O/C=C\CCl, the TGI was over 100 µM.
